According to patent US5654318A, “Bicyclic amine derivatives” (Daiichi Pharmaceutical Co., Ltd., priority 1992, dated 1997):
In brackets after ≈: the same amount, converted by molar mass.

Assays:
[1] = pH 7.4
Str. pyogenes, G-36 = assay: Antibacterial activity (MIC), Str. pyogenes, G-36; type: cell-based; conditions: Streptococcus pyogenes, G36
Protocol: (§1) The present invention will now be illustrated by way of Formulation Examples, Reference Examples, and Examples, but the present invention should not be construed as being limited thereto. All the percents are by weight unless otherwise indicated. The antibacterial activity assays were performed by the method specified by Japan Society of Chemotherapy (Chemotherapy 29(1), 76 (1981), and the results are summarized in Table 1 in terms of minimum inhibitory concentration (MIC).

S. aureus, 209P = assay: Antibacterial activity (MIC), S. aureus, 209P; type: cell-based; conditions: Staphylococcus aureus
Protocol: as §1

Pr. mirabiris, IFO-3849 = assay: Antibacterial activity (MIC), Pr. mirabiris, IFO-3849; type: cell-based
Protocol: as §1

Ps. aeruginosa, 32121 = assay: Antibacterial activity (MIC), Ps. aeruginosa, 32121; type: cell-based; conditions: Pseudomonas aeruginosa
Protocol: as §1

Ser. marcescens, 10100 = assay: Antibacterial activity (MIC), Ser. marcescens, 10100; type: cell-based; conditions: Serratia marcescens
Protocol: as §1

E. coli NIHJ = assay: Antibacterial activity (MIC), E. coli NIHJ; type: cell-based; conditions: Escherichia coli
Protocol: as §1

[2] = system: Str. faecalis, ATCC 19433; assay: Antibacterial activity (MIC), Str. faecalis, ATCC 19433; type: cell-based; conditions: Enterococcus faecalis, ATCC19433
Protocol: as §1

Pr. vulgaris, 08601 = assay: Antibacterial activity (MIC), Pr. vulgaris, 08601; type: cell-based; conditions: Proteus vulgaris
Protocol: as §1

S. aureus, Smith = assay: Antibacterial activity (MIC), S. aureus, Smith; type: cell-based; conditions: Staphylococcus aureus
Protocol: as §1

Ps. aeruginosa, 32104 = assay: Antibacterial activity (MIC), Ps. aeruginosa, 32104; type: cell-based; conditions: Pseudomonas aeruginosa
Protocol: as §1

S. flexneli, 2A, 5503 = assay: Antibacterial activity (MIC), S. flexneli, 2A, 5503; type: cell-based
Protocol: as §1

S. epidermidis, 56500 = assay: Antibacterial activity (MIC), S. epidermidis, 56500; type: cell-based; conditions: Staphylococcus epidermidis
Protocol: as §1

SMILES | Partition Coefficient p' [1] | MIC (Str. pyogenes, G-36) [µg/mL] | MIC (S. aureus, 209P) [µg/mL] | MIC (Pr. mirabiris, IFO-3849) [µg/mL] | MIC (Ps. aeruginosa, 32121) [µg/mL] | MIC (Ser. marcescens, 10100) [µg/mL] | MIC (E. coli NIHJ) [µg/mL] | MIC [2] [µg/mL] | MIC (Pr. vulgaris, 08601) [µg/mL] | MIC (S. aureus, Smith) [µg/mL] | MIC (Ps. aeruginosa, 32104) [µg/mL] | MIC (S. flexneli, 2A, 5503) [µg/mL] | MIC (S. epidermidis, 56500) [µg/mL]
O=C(O)c1cn([C@@H]2C[C@@H]2F)c2c(Cl)c(N3C[C@H]4NCCO[C@@H]4C3)c(F)cc2c1=O (mixture of isomers) [Ex. 7, (+)-8-Chloro-6-fluoro-1-[(1R,2S)-2-fluorocyclopropyl]-7-[trans-2-oxa-5,8-diazabicyclo[4.3.0]-nonan-8-yl]-1,4-dihydro-4-oxoquinoline-3-carboxylic acid] | 26.9 | – | – | – | – | – | – | – | – | – | – | – | –
O=C(O)c1cn([C@@H]2C[C@@H]2F)c2c(Cl)c(N3C[C@H]4NCCO[C@@H]4C3)c(F)cc2c1=O (mixture of isomers) [Ex. 8, (-)-8-Chloro-6-fluoro-1-[(1R,2S)-2-fluorocyclopropyl]-7-[trans-2-oxa-5,8-diazabicyclo[4.3.0]nonan-8-yl]-1,4-dihydro-4-oxoquinoline-3-carboxylic acid] | 24.8 | – | – | – | – | – | – | – | – | – | – | – | –
Nc1c(F)c(N2C[C@H]3NCCO[C@@H]3C2)c(F)c2c1c(=O)c(C(=O)O)cn2[C@@H]1C[C@@H]1F (mixture of isomers) [Ex. 9, 5-Amino-6,8-difluoro-1-[(1R,2S)-2-fluorocyclopropyl]-7-(trans-2-oxa-5,8-diazabicyclo[4.3.0]nonan-8-yl) -1,4-dihydro-4-oxoquinoline-3-carboxylic acid] | – | 0.2 | 0.013 | 0.05 | 0.05 | 0.1 | 0.006 | 0.1 | 0.025 | 0.006 | 0.2 | 0.013 | 0.025
O=C(O)c1cn(C2CC2)c2c(Cl)c(N3C[C@H]4NCCO[C@@H]4C3)c(F)cc2c1=O (relative stereo) [Compound A, 8-chloro-1-cyclopropyl-6-fluoro-1,4-dihydro-7-(trans-2-oxa-5,8-diazabicyclo[4.3.0]nonan8-yl)-4-oxo-3-quinoline-3-carboxylic acid, reference compound] | 112 | – | – | – | – | – | – | – | – | – | – | – | –
O=C(O)c1cn(C2CC2)c2c(Cl)c(N3C[C@@H]4CCCN[C@@H]4C3)c(F)cc2c1=O [Bay y 3118, reference compound] | 35.8 | – | – | – | – | – | – | – | – | – | – | – | –
O=C(O)c1cn([C@@H]2C[C@@H]2F)c2c(Cl)c(N3C[C@@H]4CCCN[C@@H]4C3)c(F)cc2c1=O [Ex. 2, 8-Chloro-7-([S,S]-2,8-diazabicyclo[4.3.0]nonan-8-yl)-8-chloro-6-fluoro-1-[(1R,2S)-2-fluorocyclopropyl]-1,4-dihydro-4-oxoquinoline-3-carboxylic Acid] | 6.69 | 0.05 (≈ 0.118 µM) | 0.013 (≈ 0.0307 µM) | 0.025 (≈ 0.059 µM) | 0.05 (≈ 0.118 µM) | 0.025 (≈ 0.059 µM) | ≤ 0.003 | 0.1 (≈ 0.236 µM) | 0.013 (≈ 0.0307 µM) | 0.006 (≈ 0.0142 µM) | 0.05 (≈ 0.118 µM) | 0.006 (≈ 0.0142 µM) | 0.05 (≈ 0.118 µM)
Nc1c(F)c(N2C[C@@H]3CCCN[C@@H]3C2)c(F)c2c1c(=O)c(C(=O)O)cn2[C@@H]1C[C@@H]1F [Ex. 3, 5-Amino-7-[(S,S)-2,8-diazabicyclo[4.3.0]nonan-8-yl]-6,8-difluoro-1-[(1R,2S)-2-fluorocyclopropyl]-1,4-dihydro-4-oxoquinoline-3-carboxylic acid] | – | 0.1 (≈ 0.237 µM) | 0.025 (≈ 0.0592 µM) | 0.05 (≈ 0.118 µM) | 0.05 (≈ 0.118 µM) | 0.05 (≈ 0.118 µM) | 0.006 (≈ 0.0142 µM) | 0.1 (≈ 0.237 µM) | 0.025 (≈ 0.0592 µM) | 0.006 (≈ 0.0142 µM) | 0.05 (≈ 0.118 µM) | 0.013 (≈ 0.0308 µM) | 0.025 (≈ 0.0592 µM)
Cc1c(N2C[C@@H]3CCCN[C@@H]3C2)c(F)cc2c(=O)c(C(=O)O)cn([C@@H]3C[C@@H]3F)c12 [Ex. 4, 7-[(S,S)-2,8-diazabicyclo[4.3.0]nonan-8-yl]-6-fluoro-1-[(1R,2S)-2-fluorocyclopropyl]-8-methyl-1,4-dihydro-4-oxoquinoline-3-carboxylic acid] | 3.73 | 0.1 (≈ 0.248 µM) | 0.025 (≈ 0.062 µM) | 0.05 (≈ 0.124 µM) | 0.05 (≈ 0.124 µM) | 0.05 (≈ 0.124 µM) | 0.013 (≈ 0.0322 µM) | 0.2 (≈ 0.496 µM) | 0.025 (≈ 0.062 µM) | 0.013 (≈ 0.0322 µM) | 0.1 (≈ 0.248 µM) | 0.025 (≈ 0.062 µM) | 0.05 (≈ 0.124 µM)
O=C(O)c1cn([C@@H]2C[C@@H]2F)c2c(F)c(N3C[C@@H]4CCCN[C@@H]4C3)c(F)cc2c1=O [Ex. 5, 7-[(S,S)-2,8-diazabicyclo[4.3.0]nonan-8-yl]-6,8-difluoro-1-[(1R,2S)-2-fluorocyclopropyl]-1,4-dihydro-4-oxoquinoline-3-carboxylic acid] | 5.84 | 0.1 (≈ 0.245 µM) | 0.025 (≈ 0.0614 µM) | 0.05 (≈ 0.123 µM) | 0.05 (≈ 0.123 µM) | 0.05 (≈ 0.123 µM) | 0.013 (≈ 0.0319 µM) | 0.2 (≈ 0.491 µM) | 0.013 (≈ 0.0319 µM) | 0.013 (≈ 0.0319 µM) | 0.1 (≈ 0.245 µM) | 0.013 (≈ 0.0319 µM) | 0.1 (≈ 0.245 µM)
O=C(O)c1cn([C@@H]2C[C@@H]2F)c2c(Cl)c(N3CC4=C(CNC4)C3)c(F)cc2c1=O [Ex. 6, 8-Chloro-7-[3,7-diazabicyclo[3.3.0]oct-1(5)-ene-3-yl]-6-fluoro-1-[(1R,2S)-2-fluorocyclopropyl]-1,4-dihydro-4-oxoquinoline-3-carboxylic acid] | – | 0.1 (≈ 0.245 µM) | 0.025 (≈ 0.0613 µM) | 0.05 (≈ 0.123 µM) | 0.1 (≈ 0.245 µM) | 0.2 (≈ 0.49 µM) | 0.025 (≈ 0.0613 µM) | 0.39 (≈ 0.956 µM) | 0.013 (≈ 0.0319 µM) | 0.013 (≈ 0.0319 µM) | 0.2 (≈ 0.49 µM) | 0.013 (≈ 0.0319 µM) | 0.1 (≈ 0.245 µM)
